Experimental data reported in patent publication US20040248964A1, “Analgesic uses of norketamine and ketamine/norketamine prodrugs” (priority 2002, published 2004).

What was measured:
rats = settings: intravenously or intraspinally; cited from earlier work
NMDA receptor = settings: cited from earlier work
[1] = Norketamine i.v. drip in a patient with intractable bladder pain, pain level subjectively evaluated by the patient; assay type: in vivo, human
Procedure: A patient, weighing approximately 60 kg, presents with intractable bladder pain (interstitial ceptitis), which has been diagnosed previously. Pain management in this patient consists of 100 mg Demoral every 3 hours; Dilaudid 2-4 mg every 4 hours; Dalmane 30 mg per day; Duralgesic patches (fentanyl transdermal patches); bladder washes with Pyridium (phenaropyridine HCl), which is a urinary tract analgesic; and belladonna and opiate suppositories. In addition to the pain medication, the patient takes Zanax and Tagamet to alleviate gastric distress, and Compazine (an anti-emetic) to counteract nausea. Gastric distress and nausea in this patient result from the pain medication.
Despite the dosages and range of pain medications used by this patient, satisfactory pain management is not achieved.
A diagnostic pre-sacral, or ilio-hypogastric, nerve block is performed on this patient to alleviate the pain. Unfortunately, the effect of the block is temporary, and the block is associated with significant motor weakness. After the block wears off, the patient states that they are unable to function, as the most mundane activities are exhausting.
Norketamine (10 mg/cc) drip was administered i.v. over one hour, for a total dose of 40 mg norketamine. […] About 1 hour after norketamine infusion is discontinued, the patient reports that the level of pain has increased to about #15, and thereafter rapidly to its previous level. The patient continues to take the other pain medications without effect.

[2] = cited from earlier work
[3] = Nasal spray self-administration of norketamine in the same patient

CCOC(=O)NC1(c2ccccc2Cl)CCCCC1=O (stereo not drawn)
melting point: 112 to 114 °C

CC(C)OC(=O)NC1(c2ccccc2Cl)CCCCC1=O (stereo not drawn)
melting point: 124 to 126 °C

CCCCOC(=O)NC1(c2ccccc2Cl)CCCCC1=O (stereo not drawn)
melting point: 130 to 132 °C

NC1(c2ccccc2Cl)CCCCC1=O (stereo not drawn) [Norketamine, 2-(2-chlorophenyl)-2-amino-cyclohexanone]
adverse sequelae compared with an equal dose of ketamine (rats): fewer of the adverse sequelae | binding to the NMDA receptor compared with S- or R-ketamine (NMDA receptor): less tightly | reduction of the pain level by a factor ([1]; 10 mg/cc drip i.v. over one hour, total dose 40 mg, from #20, subjectively evaluated by the patient): 2 | pain level about 1 hour after norketamine infusion is discontinued ([1]; thereafter rapidly to its previous level): ~15 | pain level after norketamine infusion ([1]; total dose 40 mg i.v. over one hour, level before #20): 10-12 | anesthetic and analgesic potency relative to ketamine ([2]; speculated): one third | control of breakthrough pain ([3]; nasal administration): particularly effective | pain management with nasal administration ([3]; nasal spray 100 mg/ml, 16 mg per spray, 1-2 sprays for severe pain): remarkable pain management

CN[C@]1(c2ccccc2Cl)CCCCC1=O [S-ketamine, reference compound]
potency relative to R-ketamine ([2]; in vivo): twice as potent
